From PMC5651819, “AtSPX1 affects the AtPHR1–DNA-binding equilibrium by binding monomeric AtPHR1 in solution” (Biochemical Journal, 2017) come the findings set out here.

The target of this experiment is T1, GST–AtSPX1 (Arabidopsis thaliana, UniProt Q8LBH4).
T1 construct: gene SPX1; contains degradation products and free GST
T1 sequence (Q8LBH4 1-256): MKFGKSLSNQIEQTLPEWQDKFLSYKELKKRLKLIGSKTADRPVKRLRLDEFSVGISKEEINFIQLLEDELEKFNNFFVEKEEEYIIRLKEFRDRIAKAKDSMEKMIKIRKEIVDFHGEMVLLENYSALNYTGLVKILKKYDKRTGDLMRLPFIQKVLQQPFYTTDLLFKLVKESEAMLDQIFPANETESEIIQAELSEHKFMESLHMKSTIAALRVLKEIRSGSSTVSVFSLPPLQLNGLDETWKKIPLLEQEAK
Briefly: microscale thermophoresis. Particulars: unreliable; data not shown; some Pi binding to free GST, precise affinity could not be determined.

Turning to `O=P(O)(O)O` [Pi], the Kd – broadly, a measure of binding affinity in units of concentration – lay within 5 to 10 mM.
